For series [1], the target named is T1, Solute carrier organic anion transporter family member 1B1 (Homo sapiens, UniProt Q9Y6L6).
T1 sequence (Q9Y6L6 whole entry): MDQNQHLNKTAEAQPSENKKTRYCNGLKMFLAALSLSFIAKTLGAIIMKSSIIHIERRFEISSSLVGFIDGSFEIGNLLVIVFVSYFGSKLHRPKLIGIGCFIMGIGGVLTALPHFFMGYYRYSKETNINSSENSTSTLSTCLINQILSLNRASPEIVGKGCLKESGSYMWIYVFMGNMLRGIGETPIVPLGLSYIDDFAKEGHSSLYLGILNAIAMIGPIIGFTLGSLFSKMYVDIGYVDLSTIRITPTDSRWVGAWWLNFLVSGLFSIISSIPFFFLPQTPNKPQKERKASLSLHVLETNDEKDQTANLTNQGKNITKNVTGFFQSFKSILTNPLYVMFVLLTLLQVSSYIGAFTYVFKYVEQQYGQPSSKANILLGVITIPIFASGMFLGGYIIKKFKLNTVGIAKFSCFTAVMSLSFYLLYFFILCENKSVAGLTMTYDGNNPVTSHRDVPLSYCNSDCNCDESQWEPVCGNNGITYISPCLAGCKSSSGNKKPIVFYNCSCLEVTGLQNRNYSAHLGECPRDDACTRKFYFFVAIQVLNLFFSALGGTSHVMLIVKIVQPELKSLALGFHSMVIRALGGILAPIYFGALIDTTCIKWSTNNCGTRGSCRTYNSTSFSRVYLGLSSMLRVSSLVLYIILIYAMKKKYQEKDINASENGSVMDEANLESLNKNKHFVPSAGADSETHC
The conditions noted are these: chinese hamster, cho, 10 µM.

For series [2], the target named is T2, Solute carrier organic anion transporter family member 1B3 (Homo sapiens, UniProt Q9NPD5).
T2 sequence (Q9NPD5 whole entry): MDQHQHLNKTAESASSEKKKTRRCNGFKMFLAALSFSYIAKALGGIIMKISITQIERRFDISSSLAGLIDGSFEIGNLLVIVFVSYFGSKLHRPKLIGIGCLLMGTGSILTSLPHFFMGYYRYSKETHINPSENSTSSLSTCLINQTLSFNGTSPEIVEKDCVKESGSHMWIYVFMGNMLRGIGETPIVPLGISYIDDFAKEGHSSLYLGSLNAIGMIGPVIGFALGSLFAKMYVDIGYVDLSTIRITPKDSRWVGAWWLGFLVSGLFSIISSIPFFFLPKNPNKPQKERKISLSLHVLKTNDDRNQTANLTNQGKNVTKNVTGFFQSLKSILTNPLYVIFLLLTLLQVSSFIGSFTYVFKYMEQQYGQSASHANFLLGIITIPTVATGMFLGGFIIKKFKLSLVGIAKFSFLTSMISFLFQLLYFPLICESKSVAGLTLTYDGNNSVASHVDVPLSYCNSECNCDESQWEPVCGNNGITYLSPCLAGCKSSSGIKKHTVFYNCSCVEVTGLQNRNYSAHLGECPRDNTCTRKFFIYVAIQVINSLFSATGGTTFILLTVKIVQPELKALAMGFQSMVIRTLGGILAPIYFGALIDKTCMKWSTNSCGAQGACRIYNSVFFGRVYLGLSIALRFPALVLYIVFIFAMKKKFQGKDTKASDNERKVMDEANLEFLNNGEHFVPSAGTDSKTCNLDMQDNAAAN
The following applies: chinese hamster, cho, 10 µM.

The record followed here is ChEMBL document CHEMBL3039007, “Structure-based identification of OATP1B1/3 inhibitors” (Mol Pharmacol, 2013).

The term residual activity denotes the signal under treatment as a percentage of the control signal. With `O=C(CCCN1CCC2(CC1)C(=O)NCN2c1ccccc1)c1ccc(F)cc1` [SPIPERONE], the residual activity turned out to be 168.8% in series [1] and 108.9% in series [2].

For `CC(=O)S[C@@H]1CC2=CC(=O)CC[C@]2(C)[C@H]2CC[C@@]3(C)[C@@H](CC[C@@]34CCC(=O)O4)[C@H]12` [SPIRONOLACTONE], the residual activity in series [1] was determined as 52.45%; in series [2], 103.5%.

Consider `COc1cc(C)c2c(c1C=O)Oc1c(c(C)c(O)c3c1C(O)OC3=O)OC2=O` (stereo not drawn) [STICTIC ACID], for which the residual activity turned out to be 94.3% in series [1] and 32.28% in series [2].

On to `CC[C@H](CC[C@@H](C)[C@H]1CC[C@H]2[C@@H]3CC[C@H]4C[C@@H](O)CC[C@]4(C)[C@H]3CC[C@]12C)C(C)C` [STIGMASTANOL], for which the residual activity in series [1] is given as 77.21%; in series [2] it was 102.9%.

As to `CC[C@H](/C=C/[C@@H](C)[C@H]1CC[C@H]2[C@@H]3CC=C4C[C@@H](O)CC[C@]4(C)[C@H]3CC[C@]12C)C(C)C` [STIGMASTEROL], the residual activity in series [1] came out at 110.2%; in series [2], 103.2%.

On to `CN[C@@H]1[C@H](O[C@H]2[C@H](O[C@H]3[C@H](O)[C@@H](O)[C@H](N=C(N)N)[C@@H](O)[C@@H]3N=C(N)N)O[C@@H](C)[C@]2(O)C=O)O[C@@H](CO)[C@H](O)[C@H]1O.CN[C@@H]1[C@H](O[C@H]2[C@H](O[C@H]3[C@H](O)[C@@H](O)[C@H](N=C(N)N)[C@@H](O)[C@@H]3N=C(N)N)O[C@@H](C)[C@]2(O)C=O)O[C@@H](CO)[C@H](O)[C@H]1O.O=S(=O)(O)O.O=S(=O)(O)O.O=S(=O)(O)O` [STREPTOMYCIN SULFATE], for which the figures for the residual activity in series [1] and in series [2] were 87.18% and 109.2%, respectively.

Take `CN(N=O)C(=O)N[C@@H](C=O)[C@@H](O)[C@H](O)[C@H](O)CO` [STREPTOZOCIN]: the residual activity amounted to 93.43% in series [1] and 100.3% in series [2].

With `CC1(C)C2(Cl)C(Cl)C(Cl)C(Cl)(C(Cl)Cl)C1(Cl)C2Cl` (stereo not drawn) [STROBANE], the residual activity in series [1] is on record as 106.1%; in series [2], 105.4%.

Consider `O=C1C[C@@H]2OCC=C3CN4CC[C@]56c7ccccc7N1[C@H]5[C@H]2[C@H]3C[C@H]46` [STRYCHNINE], for which the residual activity came out at 79.74% in series [1] and 93.97% in series [2].

In the case of `CC(=O)CC(=O)CCC(=O)O` [SUCCINYLACETONE], the residual activity in series [1] stood at 92.01%; in series [2], 94.95%.

On to `Clc1ccc(CSC(Cn2ccnc2)c2ccc(Cl)cc2Cl)cc1.O=[N+]([O-])O` (stereo not drawn) [SULCONAZOLE NITRATE], for which the residual activity was 116.2% in series [1] and 107.6% in series [2].

On to `Nc1ccc(S(=O)(=O)NC(=O)c2ccccc2)cc1` [SULFABENZAMIDE], for which the residual activity in series [1] was 84.77%; in series [2], 94.35%.

Consider `Nc1ccc(S(=O)(=O)Nc2ccc(Cl)nn2)cc1` [SULFACHLORPYRIDAZINE], for which the residual activity was 134.9% in series [1] and 95.19% in series [2].

On to `Nc1ccc(S(=O)(=O)Nc2ncccn2)cc1` [SULFADIAZINE], for which the residual activity in series [1] is 90.81%; in series [2], 74.08%.

Turning to `COc1cc(NS(=O)(=O)c2ccc(N)cc2)nc(OC)n1` [SULFADIMETHOXINE], the figures for the residual activity in series [1] and in series [2] were 118.7% and 103%, respectively.

With `[H]/N=C(/N)NS(=O)(=O)c1ccc(N)cc1` [SULFAGUANIDINE], the values for the residual activity in series [1] and in series [2] were 119.2% and 108%, respectively.

`Cc1ccnc(NS(=O)(=O)c2ccc(N)cc2)n1` [SULFAMERAZINE]: the residual activity in series [1] came to 84.88%; in series [2], 101.2%.

Consider `Cc1cc(C)nc(NS(=O)(=O)c2ccc(N)cc2)n1` [SULFAMETHAZINE], for which the values for the residual activity in series [1] and in series [2] were 90.46% and 97.37%, respectively.

Consider `Cc1nnc(NS(=O)(=O)c2ccc(N)cc2)s1` [SULFAMETHIZOLE], for which the residual activity in series [1] turned out to be 89.01%; in series [2], 100.6%.

With `Cc1cc(NS(=O)(=O)c2ccc(N)cc2)no1` [SULFAMETHOXAZOLE], the residual activity in series [1] amounted to 104.3%; in series [2], 94.47%.

For `COc1cc(NS(=O)(=O)c2ccc(N)cc2)ncn1` [SULFAMONOMETHOXINE], the residual activity was 109.8% in series [1] and 105.3% in series [2].

As to `Nc1ccc(S(N)(=O)=O)cc1` [SULFANILAMIDE], the figures for the residual activity in series [1] and in series [2] were 113.8% and 155.8%, respectively.

In the case of `Nc1ccc(S(=O)(=O)Nc2ccnn2-c2ccccc2)cc1` [SULFAPHENAZOLE], the values for the residual activity in series [1] and in series [2] were 104.5% and 98.59%, respectively.

For `Nc1ccc(S(=O)(=O)Nc2ccccn2)cc1` [SULFAPYRIDINE], the residual activity in series [1] amounted to 73.46%; in series [2] it was 105.2%.

For the molecule `Nc1ccc(S(=O)(=O)[N-]c2cnc3ccccc3n2)cc1.[Na+]` [SULFAQUINOXALINE SODIUM], the residual activity is 73.75% in series [1] and 102.9% in series [2].

Consider `O=C(O)c1cc(/N=N/c2ccc(S(=O)(=O)Nc3ccccn3)cc2)ccc1O` [SULFASALAZINE], for which the residual activity is on record as 126.2% in series [1] and 72.91% in series [2].

Take `Nc1ccc(S(=O)(=O)Nc2nccs2)cc1` [SULFATHIAZOLE]: the figures for the residual activity in series [1] and in series [2] were 89.12% and 85.21%, respectively.

Turning to `O=C1C(CC[S+]([O-])c2ccccc2)C(=O)N(c2ccccc2)N1c1ccccc1` (stereo not drawn) [SULFINPYRAZONE], the residual activity in series [1] is 55.19%; in series [2], 43.93%.

On to `Cc1noc(NS(=O)(=O)c2ccc(N)cc2)c1C` [SULFISOXAZOLE], for which the residual activity stood at 78.99% in series [1] and 90.16% in series [2].

With `COc1cc([S+](C)[O-])ccc1-c1nc2ncccc2[nH]1` (stereo not drawn) [SULMAZOLE], the residual activity worked out at 107.4% in series [1] and 116.5% in series [2].

`CCCCCCCCNC(C)C(O)c1ccc(SC(C)C)cc1` (stereo not drawn) [SULOCTIDIL]: the values for the residual activity in series [1] and in series [2] were 143.8% and 108.7%, respectively.

`CCN1CCCC1CNC(=O)c1cc(S(N)(=O)=O)ccc1OC` (stereo not drawn) [SULPIRIDE]: the residual activity in series [1] is 121.8%; in series [2], 106.2%.

As for `COC(=O)C(C)c1ccc(C(=O)c2cccs2)cc1` (stereo not drawn) [SUPROFEN METHYL ESTER], the residual activity was 93.7% in series [1] and 95.34% in series [2].

`CC(C(=O)O)c1ccc(C(=O)c2cccs2)cc1` (stereo not drawn) [SUPROFEN]: the residual activity worked out at 108.5% in series [1] and 96.21% in series [2].

Take `C/C=C(\C)C(=O)O[C@@H]1[C@@H]2C=C3[C@@H]4CC(=O)O[C@@H](c5ccoc5)[C@]4(C)CC[C@@H]3[C@@](C)(C2=O)[C@@H]([C@@H](O)C(=O)OC)C1(C)C` [SWIETENINE]: the residual activity in series [1] came out at 14.03%; in series [2], 69.9%.

Take `COC(=O)[C@H](O)[C@H]1C(C)(C)[C@H](OC(C)=O)[C@@H]2CC3=C4CC(=O)O[C@@H](c5ccoc5)[C@]4(C)CC[C@@H]3[C@@]1(C)C2=O` [SWIETENOLIDE-3-ACETATE]: the residual activity in series [1] was 54.05%; in series [2], 66.25%.

In the case of `O=C(O)c1cc(O)c2c(c1)[C@H]([C@H]1c3cc(C(=O)O)cc(O)c3C(=O)c3c(O[C@@H]4O[C@H](CO)[C@@H](O)[C@H](O)[C@H]4O)cccc31)c1cccc(O[C@@H]3O[C@H](CO)[C@@H](O)[C@H](O)[C@H]3O)c1C2=O` [Sennoside A], the residual activity in series [1] is on record as 122.9%; in series [2] it was 111.1%.

Take `CNC(=O)N(C)c1nnc(C(C)(C)C)s1` [TEBUTHIURON]: the results for the residual activity in series [1] and in series [2] were 87.52% and 111.4%, respectively.

Take `CCCCCNC(=N)N/N=C/c1c[nH]c2ccc(OC)cc12.O=C(O)/C=C\C(=O)O` [TEGASEROD MALEATE]: the figures for the residual activity in series [1] and in series [2] were 73.16% and 112.9%, respectively.
